According to ChEMBL document CHEMBL6109072, “Discovery of highly potent dual GSPT1/BRD4 degraders with anti-AML activity” (Eur J Med Chem, 2025):
pIC50: −log10 of the molar value. Activity calls are given as the source filed them. No cut-off for these calls is given here.

Tests used:
MOLM-13 [1] = test: Induction of apoptosis in human MOLM-13 cells assessed as early apoptotic cells at 0.1 uM incubated for 24 hrs by Annexin V-APC/7-AAD staining based flow cytometry (reference value: 0.08 %); format: functional
[2] = molecular target: T1, Protein cereblon/Bromodomain-containing protein 4 (Homo sapiens, UniProt O60885+Q96SW2); test: PROTAC activity at CRBN/BRD4 in human MOLM-13 cells assessed as BRD4 degradation at 100 nM incubated for 6 hrs by Western blot analysis; format: cell-based
T1 sequence (Q96SW2 whole entry, looked up, other chains not shown): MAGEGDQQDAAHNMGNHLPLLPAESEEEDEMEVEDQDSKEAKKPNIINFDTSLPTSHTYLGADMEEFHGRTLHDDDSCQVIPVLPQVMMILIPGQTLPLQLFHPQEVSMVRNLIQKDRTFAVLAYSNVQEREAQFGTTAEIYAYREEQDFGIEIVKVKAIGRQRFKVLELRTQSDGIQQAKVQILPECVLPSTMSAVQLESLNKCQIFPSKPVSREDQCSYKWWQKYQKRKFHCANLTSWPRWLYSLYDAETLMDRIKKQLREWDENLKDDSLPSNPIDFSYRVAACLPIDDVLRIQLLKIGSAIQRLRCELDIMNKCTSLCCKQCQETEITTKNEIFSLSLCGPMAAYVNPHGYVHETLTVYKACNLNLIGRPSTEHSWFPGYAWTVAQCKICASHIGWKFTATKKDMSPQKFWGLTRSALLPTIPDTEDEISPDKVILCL

[3] = Toxicity in IL2Rg-null NSG mouse xenografted with human MOLM-13 cells expressing GFP-Fluc assessed as drug tolerance at 2.5 mg/kg, ip bid treated for 18 days; format: organism-based; details: in vivo, 432 h, time 18 day
SU-DHL-1 = test: Antiproliferative activity against human SU-DHL-1 cells incubated for 3 days by CCK8 assay; format: functional, cell-based; details: SU-DHL-1, 72 h
MOLM-13 [4] = test: Antitumor activity against human MOLM-13 cells expressing GFP-Fluc xenografted in IL2Rg-null NSG mouse assessed as reduction in spleen weight at 2.5 mg/kg, ip bid treated for 21 days; format: functional, organism-based; details: time 21.0 day
MOLM-13 [5] = test: Antitumor activity against human MOLM-13 cells expressing GFP-Fluc xenografted in IL2Rg-null NSG mouse assessed as prolongation of median survival time at 2.5 mg/kg, ip bid treated for 21 days; format: functional, organism-based; details: time 21.0 day
MOLM-13 [6] = test: Induction of apoptosis in human MOLM-13 cells assessed as necrotic cells at 0.1 uM incubated for 6 hrs by Annexin V-APC/7-AAD staining based flow cytometry (reference value: 2.79 %); format: functional
Daudi = test: Antiproliferative activity against human Daudi cells incubated for 3 days by CCK8 assay; format: functional, cell-based; details: 72 h
THP-1 = test: Antiproliferative activity against human THP-1 cells incubated for 3 days by CCK8 assay; format: functional, cell-based; details: THP-1, 72 h
OCI-AML-3 = test: Antiproliferative activity against human OCI-AML-3 cells incubated for 3 days by CCK8 assay; format: functional, cell-based; details: Homo sapiens, OCI-AML-3, 72 h
MOLM-13 [7] = test: Induction of apoptosis in human MOLM-13 cells assessed as necrotic cells at 0.1 uM incubated for 24 hrs by Annexin V-APC/7-AAD staining based flow cytometry (reference value: 2.79 %); format: functional
HL-60 = test: Antiproliferative activity against human HL-60 cells incubated for 3 days by CCK8 assay; format: functional, cell-based; details: HL-60, 72 h
MOLM-13 [8] = test: Induction of apoptosis in human MOLM-13 cells assessed as viable cells at 0.1 uM incubated for 6 hrs by Annexin V-APC/7-AAD staining based flow cytometry (reference value: 97.12 %); format: functional; details: read-out: Activity
Raji = test: Antiproliferative activity against human Raji cells incubated for 3 days by CCK8 assay; format: functional, cell-based; details: 72 h
MOLM-13 [9] = test: Induction of apoptosis in human MOLM-13 cells assessed as late apoptotic cells at 0.1 uM incubated for 6 hrs by Annexin V-APC/7-AAD staining based flow cytometry (reference value: 0.01 %); format: functional
[10] = molecular target: T1, Protein cereblon/Bromodomain-containing protein 4; test: PROTAC activity at CRBN/BRD4 in human MOLM-13 cells assessed as BRD4 degradation at 1 uM incubated for 24 hrs by Western blot analysis; format: cell-based
MOLM-13 [11] = test: Induction of apoptosis in human MOLM-13 cells assessed as viable cells at 0.1 uM incubated for 12 hrs by Annexin V-APC/7-AAD staining based flow cytometry (reference value: 97.12 %); format: functional; details: read-out: Activity
MOLM-13 [12] = test: Induction of cell cycle arrest in human MOLM-13 cells assessed as accumulation at G1 phase at 0.1 uM incubated for 6 to 12 hrs by PI staining based flow cytometry; format: functional; details: time 6-12 hrs
[13] = molecular target: T2, Protein cereblon/Eukaryotic peptide chain release factor GTP-binding subunit ERF3A (Homo sapiens, UniProt Q96SW2+P15170); test: PROTAC activity at CRBN/GSPT1 in human MOLM-13 cells assessed as GSPT1 degradation at 100 nM incubated for 6 hrs by Western blot analysis; format: cell-based
Target sequence in this assay (P15170 whole entry, looked up): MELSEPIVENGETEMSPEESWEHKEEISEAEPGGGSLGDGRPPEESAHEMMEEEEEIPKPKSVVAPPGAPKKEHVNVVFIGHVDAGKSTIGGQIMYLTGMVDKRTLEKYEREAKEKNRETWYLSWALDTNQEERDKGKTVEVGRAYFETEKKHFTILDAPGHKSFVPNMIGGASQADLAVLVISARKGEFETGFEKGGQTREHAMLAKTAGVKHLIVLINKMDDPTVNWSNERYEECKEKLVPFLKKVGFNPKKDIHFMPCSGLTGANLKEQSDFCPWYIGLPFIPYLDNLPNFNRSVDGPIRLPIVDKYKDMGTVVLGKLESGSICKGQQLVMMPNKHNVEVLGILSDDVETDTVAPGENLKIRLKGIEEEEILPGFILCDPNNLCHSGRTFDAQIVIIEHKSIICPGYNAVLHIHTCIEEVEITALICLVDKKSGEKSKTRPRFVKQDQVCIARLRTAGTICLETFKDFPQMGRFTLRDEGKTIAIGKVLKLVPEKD
Target sequence in this assay (Q96SW2 whole entry, looked up): as the sequence (Q96SW2 whole entry, looked up, other chains not shown) above

[14] = molecular target: T2, Protein cereblon/Eukaryotic peptide chain release factor GTP-binding subunit ERF3A; test: PROTAC activity at CRBN/GSPT1 in human MOLM-13 cells assessed as GSPT1 degradation incubated for 24 hrs by Western blot analysis; format: cell-based
Target sequence in this assay (Q96SW2 whole entry): as the sequence (Q96SW2 whole entry, looked up, other chains not shown) above
Target sequence in this assay (P15170 whole entry): as the sequence (P15170 whole entry, looked up) above

MOLM-13 [15] = test: Antiproliferative activity against human MOLM-13 cells incubated for 3 days by CCK8 assay; format: functional, cell-based; details: MOLM-13, 72 h
NB-4 = test: Antiproliferative activity against human NB4 cells incubated for 3 days by CCK8 assay; format: functional, cell-based; details: NB-4, 72 h
MOLM-13 [16] = test: Antitumor activity against human MOLM-13 cells expressing GFP-Fluc xenografted in IL2Rg-null NSG mouse assessed as reduction in GFP-positive leukemic cells in peripheral blood at 2.5 mg/kg, ip bid treated for 21 days by flow cytometry; format: functional, organism-based; details: time 21.0 day
KARPAS-299 = test: Antiproliferative activity against human KARPAS-299 cells incubated for 3 days by CCK8 assay; format: functional, cell-based; details: Homo sapiens, KARPAS-299, 72 h
MOLM-13 [17] = test: Induction of apoptosis in human MOLM-13 cells assessed as early apoptotic cells at 0.1 uM incubated for 12 hrs by Annexin V-APC/7-AAD staining based flow cytometry (reference value: 0.08 %); format: functional
MOLM-13 [18] = test: Induction of apoptosis in human MOLM-13 cells assessed as viable cells at 0.1 uM incubated for 24 hrs by Annexin V-APC/7-AAD staining based flow cytometry (reference value: 97.12 %); format: functional; details: read-out: Activity
MOLM-13 [19] = test: Induction of apoptosis in human MOLM-13 cells assessed as late apoptotic cells at 0.1 uM incubated for 12 hrs by Annexin V-APC/7-AAD staining based flow cytometry (reference value: 0.01 %); format: functional
MOLM-13 [20] = test: Induction of apoptosis in human MOLM-13 cells assessed as late apoptotic cells at 0.1 uM incubated for 24 hrs by Annexin V-APC/7-AAD staining based flow cytometry (reference value: 0.01 %); format: functional
[21] = molecular target: T1, Protein cereblon/Bromodomain-containing protein 4; test: PROTAC activity at CRBN/BRD4 in human MOLM-13 cells assessed as BRD4 degradation incubated for 24 hrs by Western blot analysis; format: cell-based
MOLM-13 [22] = test: Induction of apoptosis in human MOLM-13 cells assessed as necrotic cells at 0.1 uM incubated for 12 hrs by Annexin V-APC/7-AAD staining based flow cytometry (reference value: 2.79 %); format: functional
MOLM-13 [23] = test: Antitumor activity against human MOLM-13 cells expressing GFP-Fluc xenografted in IL2Rg-null NSG mouse assessed as reduction in GFP-positive leukemic cells in bone marrow at 2.5 mg/kg, ip bid treated for 21 days by flow cytometry; format: functional, organism-based; details: time 21.0 day
MOLM-13 [24] = test: Antiproliferative activity against human MOLM-13 cells assessed as cell viability at 0.1 uM incubated for 3 days by CCK8 assay relative to control; format: functional; details: MOLM-13, 72 h, time 3 day, read-out: Activity
MOLM-13 [25] = test: Antitumor activity against human MOLM-13 cells expressing GFP-Fluc xenografted in IL2Rg-null NSG mouse assessed as reduction in leukemia burden at 2.5 mg/kg, ip bid treated for 21 days by bioluminescence imaging based analysis; format: functional, organism-based; details: time 21.0 day
MOLM-13 [26] = test: Antitumor activity against human MOLM-13 cells expressing GFP-Fluc xenografted in IL2Rg-null NSG mouse assessed as reduction in GFP-positive leukemic cells in spleen at 2.5 mg/kg, ip bid treated for 21 days by flow cytometry; format: functional, organism-based; details: time 21.0 day
MOLM-13 [27] = test: Induction of apoptosis in human MOLM-13 cells assessed as early apoptotic cells at 0.1 uM incubated for 6 hrs by Annexin V-APC/7-AAD staining based flow cytometry (reference value: 0.08 %); format: functional
[28] = Cytotoxicity in human PBMC cells at 62.5 to 1000 nM; format: toxicity, cell-based; details: 1 µM, dose 62.5-1000 nM
[29] = Toxicity in IL2Rg-null NSG mouse xenografted with human MOLM-13 cells expressing GFP-Fluc assessed as body weight change at 2.5 mg/kg, ip bid treated for 18 days; format: organism-based; details: in vivo, 432 h, time 18 day

- Activity [2]: Active
- pIC50 (SU-DHL-1): 8.20
- pIC50 (Daudi): 8.05
- pIC50 (THP-1): 7.75
- pIC50 (OCI-AML-3): 7.84
- pIC50 (HL-60): 8.09
- pIC50 (Raji): 8.00
- Activity [10]: Active
- Activity [13]: Active
- DC50 [14]: 5.25 nM
- pIC50 (MOLM-13 [15]): 8.07
- pIC50 (KARPAS-299): 7.59
- DC50 [21]: 0.48 nM
SMILES: Cc1sc2c(c1C)C(c1ccc(Cl)cc1)=N[C@@H](CC(=O)N1CCN(CC3CCN(c4ccc5c(c4)C(=O)N(C4CCC(=O)NC4=O)C5=O)CC3)CC1)c1nnc(C)n1-2 (some centres not stated)
- Activity (MOLM-13 [1]): 67.5%
- Activity [3]: Non-toxic
- Activity (MOLM-13 [4]): Active; Compound Activity Consistent With Decreased Leukemic Infiltration
- Activity (MOLM-13 [5]): Active
- Activity (MOLM-13 [6]): 0.36%
- Activity (MOLM-13 [7]): 1.18%
- viability at 0.1 µM (MOLM-13 [8]): 78.7%
- Activity (MOLM-13 [9]): 0.3%
- viability at 0.1 µM (MOLM-13 [11]): 57.8%
- Activity (MOLM-13 [12]): Active
- pIC50 (NB-4): 8.57
- Activity (MOLM-13 [16]): Active
- Activity (MOLM-13 [17]): 39.9%
- viability at 0.1 µM (MOLM-13 [18]): 10.2%
- Activity (MOLM-13 [19]): 2.01%
- Activity (MOLM-13 [20]): 21.1%
- Activity (MOLM-13 [22]): 0.26%
- Activity (MOLM-13 [23]): Active
- viability at 0.1 µM (MOLM-13 [24]): 7.02%
- Activity (MOLM-13 [25]): Active
- Activity (MOLM-13 [26]): Active
- Activity (MOLM-13 [27]): 20.64%
- Activity [28]: Non-toxic
- Activity [29]: Non-toxic
